Data as given in patent publication US6395738B1, “Benzofuran derivatives” (Kyowa Hakko Kogyo Co., Ltd., priority 1997, dated 2002).
Where a name gives a salt, the structure may show the parent alone.

What was measured:
TNF α = assay: Inhibitory activity on production of TNF α in mouse model with LPS-induced sepsis; assay type: in vivo, BALB/c male mice; details: for Ratio of inhibition (%) of TNF α production: Dose (mg) 30, orally administered 90 minutes before LPS i.v., serum TNF α by ELISA 1 hour after LPS
[1] = molecular target: T1, Recombinant Human PDE IV Enzyme (HSPDE4A) (Homo sapiens, UniProt P27815); assay: Inhibition test on recombinant human PDE IV enzyme; assay type: biochemical; details: [3H]cAMP substrate
T1 construct: except that 223 amino acids have been deleted from the N-terminal thereof; made in house; host or cells: E. coli
Description: Inhibition Test on Recombinant Human PDE IV Enzyme
Human phosphodiesterase cDNA (HSPDE4A) was isolated from testicles. Its predicted amino acid sequence is identical with the sequence (HSPDE4A5) reported by Bolger, G. et al. (Mol. Cell. Biol., 6558 (1993)) except that 223 amino acids have been deleted from the N-terminal thereof. This recombinant protein was expressed by an E. coli expression plasmid and then purified. The PDE activity was measured in the following 2-step process according to the method of Kincaid, R. and Manganiello, V. [Method. Enzymol., 159, 457 (1988)]. The substrate used was [^3H]cAMP (final concentration: […]), and the reaction was performed in a standard mixture containing N,N-bis(2-hydroxyethyl)-2-aminoethanesulfonic acid (50 mmol/l, pH 7.2), MgCl2 (1 mmol/l) and soybean trypsin inhibitor (0.1 mg/ml). The reaction was initiated by adding the enzyme thereto, and the mixture was incubated at 30° C. for 10 to 30 minutes. The reaction was quenched by hydrochloric acid, and the formed 5′-AMP was completely decomposed with […]. This sample was subjected to chromatography on DEAE-Sephadex A-25, and the eluted [^3H]adenosine was counted with a scintillation counter. The test compound was added after dissolved (concentration: 1.7%) in DMSO.

Male Sunkus murinus = assay: Vomiting test on male Sunkus; assay type: in vivo
Description: Vomiting Test on Male Sunkus
Male Sunkus murinus weighing about 60 g, 5 to 15 animals/group, were used in the test According to the method of Matsuki et al. (Japan J. Pharmacol., 48, 303 (1988)), each Sunkus animal was isolated and left in a wire-netting cage (15 cm width×21 cm length×15 cm height). Each test compound was suspended in physiological saline containing 0.5% Tween 80 and then intraperitoneally (i.p.) administered into each animal in a dose of 10 μl/g. […] The results were expressed in the number of animals with vomiting/the number of tested animals in the group given the test compound.
Compounds P and Q were used as the comparative compounds.

[2] = concentration of test compound 10^−7 mol/L
[3] = concentration of test compound 10^−8 mol/L

T1 sequence (P27815 224-886 limits assumed): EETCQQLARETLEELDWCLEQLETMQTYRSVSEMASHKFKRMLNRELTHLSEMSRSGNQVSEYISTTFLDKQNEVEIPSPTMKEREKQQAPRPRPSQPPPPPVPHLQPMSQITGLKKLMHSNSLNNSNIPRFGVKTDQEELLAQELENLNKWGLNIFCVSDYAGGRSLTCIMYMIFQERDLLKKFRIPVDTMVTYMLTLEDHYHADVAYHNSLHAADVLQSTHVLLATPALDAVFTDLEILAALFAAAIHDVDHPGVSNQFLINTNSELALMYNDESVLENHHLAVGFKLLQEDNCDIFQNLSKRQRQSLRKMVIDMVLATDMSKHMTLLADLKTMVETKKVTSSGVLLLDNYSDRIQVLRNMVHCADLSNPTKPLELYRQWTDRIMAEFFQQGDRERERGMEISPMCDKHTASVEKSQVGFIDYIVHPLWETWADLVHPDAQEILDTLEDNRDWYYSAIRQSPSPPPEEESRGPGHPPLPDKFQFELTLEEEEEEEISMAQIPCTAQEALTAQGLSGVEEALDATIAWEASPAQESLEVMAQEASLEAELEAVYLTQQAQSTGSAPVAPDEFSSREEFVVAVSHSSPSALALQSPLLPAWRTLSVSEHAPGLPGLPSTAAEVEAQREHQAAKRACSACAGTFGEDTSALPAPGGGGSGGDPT

Row | SMILES | melting point | Ratio of inhibition (%) of TNF α production (TNF α) | Ratio of inhibition (%) [1, 2] | Ratio of inhibition (%) [1, 3] | other results
1 | COc1ccc(CCc2c(Cl)cncc2Cl)c2cc(C(=O)N3CCN(C)CC3)oc12.O=C(O)/C=C/C(=O)O | 186 to 187 °C | – | – | – | –
2 | COc1ccc(CCc2c(Cl)cncc2Cl)c2cc(C(=O)N3CCN(CCO)CC3)oc12.O=C(O)/C=C/C(=O)O | 184 to 185 °C | – | – | – | –
3 | CCN1CCN(C(=O)c2cc3c(C(=O)Nc4c(Cl)cncc4Cl)ccc(OC)c3o2)CC1.O=C(O)/C=C/C(=O)O [Compound 3, 4-(3,5-Dichloro-4-pyridyl)carbamoyl-2-(4-ethyl-1-piperazinyl)carbonyl-7-methoxybenzofuran monofumarate] | 202 to 204 °C | 50% | 71% | 20% | –
4 | COC(=O)c1ccc(C(=O)Nc2c(Cl)cncc2Cl)c2cc(N3CCN(C(C)CO)CC3)oc12 (stereo not drawn) [Compound 4, 4-(3,5-Dichloro-4-pyridyl)carbamoyl-2-[4-(1-hydroxy-2-propyl)-1-piperazinyl]-7-methoxycarbonylbenzofuran] | 148 to 150 °C | – | 85% | 28% | –
5 | CCC(CO)N1CCN(C(=O)c2cc3c(C(=O)Nc4c(Cl)cncc4Cl)ccc(OC)c3o2)CC1 (stereo not drawn) [Compound 5, 4-(3,5-Dichloro-4-pyridyl)carbamoyl-2-[4-(1-hydroxy-2-butyl)-1-piperazinyl]carbonyl-7-methoxybenzofuran] | 192 to 194 °C | 53% | 89% | 41% | –
6 | COc1ccc(C(=O)Nc2c(Cl)cncc2Cl)c2cc(C(=O)N3CCN(CCCO)CC3)oc12 [Compound 6, 4-(3,5-Dichloro-4-pyridyl)carbamoyl-2-(4-hydroxypropyl-1-piperazinyl)carbonyl-7-methoxybenzofuran] | 180 to 182 °C | 33% | 81% | 24% | –
7 | COc1ccc(C(=O)Nc2c(Cl)cncc2Cl)c2cc(C(=O)N3CCN(CCCCO)CC3)oc12 [Compound 7, 4-(3,5-Dichloro-4-pyridyl)carbamoyl-2-(4-hydroxybutyl-1-piperazinyl)carbonyl-7-methoxybenzofuran] | – | – | 83% | 35% | –
8 | COc1ccc(C(=O)Nc2c(Cl)cncc2Cl)c2cc(C(=O)N3CCN(CCOCCO)CC3)oc12 [Compound 9, 4-(3,5-Dichloro-4-pyridyl)carbamoyl-2-{4-[2-(2-hydroxyethoxy)ethyl]-1-piperazinyl}carbonyl-7-methoxybenzofuran] | 132 to 133 °C | – | 78% | 29% | –
9 | COc1ccc(C(=O)Nc2c(Cl)cncc2Cl)c2cc(C(=O)N3CC(C)N(C)C(C)C3)oc12 (stereo not drawn) [Compound 10, 4-(3,5-Dichloro-4-pyridyl)carbamoyl-7-methoxy-2-(3,4,5-trimethyl-1-piperazinyl)carbonylbenzofuran] | 234 to 236 °C | 46% | 75% | 9% | –
10 | COc1ccc(C(=O)Nc2c(Cl)cncc2Cl)c2cc(C(=O)N3CC(C)N(CCO)C(C)C3)oc12 (stereo not drawn) [Compound 11, 4-(3,5-Dichloro-4-pyridyl)carbamoyl-2-(3,5-dimethyl-4-hydroxyethyl-7-methoxy-1-piperazinyl)carbonylbenzofuran] | – | – | 88% | 48% | –
11 | COc1ccc(C(=O)Nc2c(Cl)cncc2Cl)c2cc(C(=O)N3CCNCC3)oc12 [Compound 12, 4-(3,5-Dichloro-4-pyridyl)carbamoyl-7-methoxy-2-(1-piperazinyl)carbonylbenzofuran] | – | 27% | – | – | –
12 | CCN1CCN(c2cc3c(C(=O)Cc4c(Cl)cncc4Cl)ccc(C(=O)OC)c3o2)CC1.O=C(O)/C=C/C(=O)O [Compound 15, 4-[2-(3,5-Dichloro-4-pyridyl)-1-oxoethyl]-2-(4-ethyl-1-piperazinyl)-7-methoxycarbonylbenzofuran Monofumarate] | 196 to 198 °C | 61% | – | – | –
13 | COc1ccc(C(=O)Cc2c(Cl)cncc2Cl)c2cc(C(=O)N3CCN(C(C)C)CC3)oc12.O=C(O)/C=C/C(=O)O [Compound 16, 4-[2-(3,5-Dichloro-4-pyridyl)-1-oxoethyl]-2-(4-isopropyl-1-piperazinyl)carbonyl-7-methoxybenzofuran Monofumarate] | 195 to 196 °C | 67% | – | – | –
14 | CCOCCN1CCN(C(=O)c2cc3c(C(=O)Cc4c(Cl)cncc4Cl)ccc(OC)c3o2)CC1.O=C(O)/C=C/C(=O)O [Compound 17, 4-[2-(3,5-Dichloro-4-pyridyl)-1-oxoethyl]-2-(4-ethoxyethyl-1-piperazinyl)carbonyl-7-methoxybenzofuran Monofumarate] | 184 to 185 °C | 62% | – | – | –
15 | COc1ccc(C(=O)Cc2c(Cl)cncc2Cl)c2cc(C(=O)N3CCN(C(C)CO)CC3)oc12 (stereo not drawn) [Compound 18, 4-[2-(3,5-Dichloro-4-pyridyl)-1-oxoethyl]-2-[4-(1-hydroxy-2-propyl)-1-piperazinyl]carbonyl-7-methoxybenzofuran] | 187 to 189 °C | 66% | – | – | –
16 | CCC(CO)N1CCN(C(=O)c2cc3c(C(=O)Cc4c(Cl)cncc4Cl)ccc(OC)c3o2)CC1 (stereo not drawn) [Compound 19, 4-[2-(3,5-Dichloro-4-pyridyl)-1-oxoethyl]-2-[4-(1-hydroxy-2-butyl)-1-piperazinyl]carbonyl-7-methoxybenzofuran] | 150 to 152 °C | 68% | – | – | –
17 | COc1ccc(C(=O)Cc2c(Cl)cncc2Cl)c2cc(C(=O)N3CCN(CCCO)CC3)oc12 [Compound 20, 4-[2-(3,5-Dichloro-4-pyridyl)-1-oxoethyl]-2-[4-(3-hydroxypropyl)-1-piperazinyl]carbonyl-7-methoxybenzofuran] | 162 to 163 °C | 40% | – | – | –
18 | COc1ccc(C(=O)Cc2c(Cl)cncc2Cl)c2cc(C(=O)N3CCN(CCCCO)CC3)oc12 [Compound 21, 4-[2-(3,5-Dichloro-4-pyridyl)-1-oxoethyl]-2-[4-(4-hydroxybutyl)-1-piperazinyl]carbonyl-7-methoxybenzofuran] | 120 to 121 °C | 28% | – | – | –
19 | COc1ccc(C(=O)Cc2c(Cl)cncc2Cl)c2cc(C(=O)N3CCN(C(CO)CO)CC3)oc12 [Compound 22, 4-[2-(3,5-Dichloro-4-pyridyl)-1-oxoethyl]-2-[4-(1,3-dihydroxy-2-propyl)-1-piperazinyl]carbonyl-7-methoxybenzofuran] | 213 to 215 °C | 52% | – | – | –
20 | COc1ccc(C(=O)Cc2c(Cl)cncc2Cl)c2cc(C(=O)N3CCN(CCOCCO)CC3)oc12 [Compound 23, 4-[2-(3,5-Dichloro-4-pyridyl)-1-oxoethyl]-2-{4-[2-(2-hydroxyethoxy)ethyl]-1-piperazinyl}carbonyl-7-methoxybenzofuran] | 132 to 133 °C | – | – | – | –
21 | COc1ccc(C(=O)Cc2c(Cl)cncc2Cl)c2cc(C(=O)N3CCNCC3)oc12.Cl [Compound 24, 4-[2-(3,5-Dichloro-4-pyridyl)-1-oxoethyl]-2-(1-piperazinyl)carbonyl-7-methoxybenzofuran Monohydrochloride] | – | 47% | – | – | –
22 | COc1ccc(C(=O)Cc2c(Cl)cncc2Cl)c2cc(C(=O)N3CC(C)N(C)C(C)C3)oc12 (stereo not drawn) [Compound 25, 4-[2-(3,5-Dichloro-4-pyridyl)-1-oxoethyl]-7-methoxy-2-(3,4,5-trimethyl-1-piperazinyl)carbonylbenzofuran] | 173 to 174 °C | 53% | – | – | –
23 | COc1ccc(C(=O)Cc2c(Cl)cncc2Cl)c2cc(C(=O)N3CC(C)N(CCO)C(C)C3)oc12 (stereo not drawn) [Compound 26, 4-[2-(3,5-Dichloro-4-pyridyl)-1-oxoethyl]-2-(3,5-dimethyl-4-hydroxyethyl-1-piperazinyl)carbonyl-7-methoxybenzofuran] | 187 to 188 °C | – | – | – | –
24 | COc1ccc(C(=O)Cc2ccncc2)c2c1OC1(CCCC1)C2 [Compound P, 7-methoxy-4-[1-oxo-2-(4-pyridyl)ethyl]-spiro[2,3-dihydrobenzofuran-2,1′-cyclopentane].hydrochloride, reference compound] | – | 81% | – | – | Number of animals with vomiting/Number of tested animals (Male Sunkus murinus; Dose (mg) 10, intraperitoneal, observed for 1 hour): 5/5; vomiting as a side effect (in words) (Male Sunkus murinus; summary of Table 4): caused vomiting; inhibitory activity on production of TNF α (in words) (TNF α; summary of Table 3): high inhibitory activity
